From ChEMBL document CHEMBL1157539, “Thousands of chemical starting points for antimalarial lead identification” (Nature, 2010)

System: Plasmodium falciparum
Assay: GSK_TCMDC: Inhibition of Plasmodium falciparum 3D7 in whole erythrocytes, using parasite LDH activity as an index of growth.
Format: functional, organism-based
Conditions: Plasmodium falciparum, 3D7

SMILES: CC(=O)N(Cc1cccc(-c2cccc(CNCc3ccc4c(c3)OCO4)c2)c1)C1CCN(Cc2ccccc2)CC1
- XC50: 0.839 µM

SMILES: CCOc1cc(Cc2cnc(N)nc2N)cc(OCC)c1O
- XC50: 1.17 µM

SMILES: Cc1cccc2nc(-c3ccc(-c4cccc(NC(=O)c5cccc(C(N)=O)c5)c4)cc3)[nH]c12
- XC50: 1.13 µM

SMILES: Cc1ccc(C(=O)Nc2ccc(Nc3ccnc4cc(-c5nccs5)ccc34)cc2O)cc1
- XC50: 0.0478 µM

SMILES: C#CCN(Cc1cc2c(=O)[nH]c(N)nc2cc1C)c1ccc(C(=O)N[C@@H](CCC(=O)O)C(=O)O)cc1
- XC50: 0.625 µM

SMILES: COC[C@H]1CCCN1Cc1ccc(-c2ccc(-c3nc4ccccc4[nH]3)s2)cc1
- XC50: 1 µM

SMILES: COc1c(C2CCN(CCCCNC(=O)c3noc(-c4ccc(C#N)cc4)n3)CC2)ccc2c1CCCC2
- XC50: 0.776 µM

SMILES: Cc1cccc2nc(-c3ccc(-c4cccc(CNCCc5ccncc5)c4)s3)[nH]c12
- XC50: 0.138 µM

SMILES: COc1cc(CS(C)(=O)=O)ccc1Nc1nccc(-c2c(-c3cccc(NC(=O)c4c(F)cccc4F)c3)nn3ccccc23)n1
- XC50: 0.966 µM

SMILES: COc1ccccc1C1CCN(C2CCC(NC(=O)/C=C/c3ccc(OC(F)(F)F)cc3)CC2)CC1 (stereo not drawn)
- XC50: 1.35 µM

SMILES: CCN(CC)/C(=N\CCCCCC/N=C(\NC(=N)c1ccc(Cl)cc1)N(CC)CC)NC(=N)c1ccc(Cl)cc1
- XC50: 0.381 µM

SMILES: O=C(C1COc2ccccc2O1)N(CCCn1ccnc1)Cc1csc(-c2ccc(CNCc3ccccc3)cc2)n1 (stereo not drawn)
- XC50: 0.619 µM

SMILES: COc1ccc(CNCc2ccc(-c3cccc(-c4nc5cccc(C)c5[nH]4)c3)cc2)cc1
- XC50: 0.13 µM

SMILES: Cc1[nH]c(C)c(-c2ccc(-c3ccccc3Cl)nc2)c(=O)c1Cl
- XC50: 0.217 µM

SMILES: CC(=O)Nc1nc(C(=O)Nc2cccc(-c3ccc(-c4nc5cccc(C)c5[nH]4)s3)c2)cs1
- XC50: 0.222 µM

SMILES: COc1ccc(Nc2nc(C)cc(NC3CCCC3)n2)cc1
- XC50: 0.872 µM

SMILES: CC(C)CCN1CCC(Oc2ccc(NC(=O)c3ccsc3)cc2Cl)CC1
- XC50: 1.04 µM

SMILES: COc1ccc2nccc([C@@H](O)CN3CCC(NCc4cnc5c(c4)NC(=O)CS5)CC3)c2c1
- XC50: 0.86 µM

SMILES: CC(C)N1CCN(CCCCNc2c3ccccc3nc3ccccc23)CC1
- XC50: 0.54 µM

SMILES: O=C(Nc1cccc(-c2cccc(-c3nc4cc(F)ccc4[nH]3)c2)c1)c1ccoc1
- XC50: 0.333 µM

SMILES: COc1cccc2c(Nc3ccccc3C)nc(Nc3ccccc3C)nc12
- XC50: 0.679 µM

SMILES: CS(=O)(=O)CCNCc1ccc(-c2cc3c(Nc4ccc(OCc5cccc(F)c5)c(Cl)c4)ncnc3s2)[nH]1
- XC50: 0.844 µM

SMILES: Cc1cccc2nc(-c3cccc(-c4cccc(CN5CCN(c6ccc(C#N)cn6)CC5)c4)c3)[nH]c12
- XC50: 1.16 µM

SMILES: COc1cccc(CNC(=O)c2cccc(-c3cccc(CN4CCC(N5CCCC5)CC4)c3)n2)c1
- XC50: 1.03 µM

SMILES: Cc1cccc2nc(-c3cccc(-c4ccc(NC(=O)CN5CCN(C)CC5)cc4)c3)[nH]c12
- XC50: 0.562 µM

SMILES: CCN(CC)CCNc1ccnc2[nH]c3ccc(I)cc3c12
- XC50: 0.23 µM

SMILES: CC(C)(C)c1ccc(CNC(=O)c2cc(CNC3CCC(N)CC3)ccc2O)cc1 (stereo not drawn)
- XC50: 1.03 µM

SMILES: CC(C)COc1ccc(Cl)cc1Cc1ccc(-c2nc3ccc(Cl)cc3[nH]2)o1
- XC50: 0.925 µM

SMILES: FC(F)(F)CNc1nc(Nc2ccc3ncccc3c2)nc2[nH]ccc12
- XC50: 1.24 µM

SMILES: CC(C)NCc1cccc(-c2ccc(-c3nc4cc(C(F)(F)F)ccc4[nH]3)cc2)c1
- XC50: 0.193 µM

SMILES: COc1ccc(-c2c(C(F)(F)F)nn(C)c2NC(=O)Nc2ccc(F)cc2F)cc1
- XC50: 0.797 µM

SMILES: CON(C)C(=O)[C@@H](CCCCNC(=O)OCc1ccccc1)NC(=O)OC(C)(C)C
- XC50: 0.195 µM

SMILES: O=C(NCc1ccccc1)c1nn(CCCN2CCC(N3CCCC3)CC2)cc1-c1ccc(Cl)c(Cl)c1
- XC50: 0.675 µM

SMILES: COc1ccc(OC)c(C=CC(=O)NC2CCC(CN3CCC(c4c[nH]c5ccccc45)CC3)CC2)c1 (stereo not drawn)
- XC50: 0.653 µM

SMILES: COc1cc(Nc2nccc(NCC(O)c3ccc(C(F)(F)F)cc3)n2)cc(OC)c1OC (stereo not drawn)
- XC50: 0.92 µM

SMILES: CCCC(C)c1ccc(N2C(N)=NC(N)=NC2(C)C)cc1 (stereo not drawn)
- XC50: 0.00627 µM

SMILES: CN1CCN(CC(=O)Nc2ccc(-c3cccc(-c4nc5cc(C(F)(F)F)ccc5[nH]4)c3)cc2)CC1
- XC50: 0.399 µM

SMILES: CC(C)NCc1cccc(-c2ccc(-c3nc4ccccc4[nH]3)cc2)c1
- XC50: 0.761 µM
